Source: PubChem BioAssay (NCI)
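Test compounds were applied to cells in 96-well plates for 48 hours at 5 doses. The concentration for full growth arrest is given as TGI.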

Tests used:
Assay in all cases: NCI anticancer screen, dose series, 48 h
786-0 renal = test system: 786-0 renal
A498 renal = test system: A498 renal
A549 NSCLC = test system: A549 NSCLC
ACHN renal = test system: ACHN renal
CAKI-1 renal = test system: CAKI-1 renal
CCRF-CEM leukemia = test system: CCRF-CEM leukemia
COLO 205 colon = test system: COLO 205 colon
DU-145 prostate = test system: DU-145 prostate
EKVX NSCLC = test system: EKVX NSCLC
HCC-2998 colon = test system: HCC-2998 colon
HCT-116 colon = test system: HCT-116 colon
HCT-15 colon = test system: HCT-15 colon
HL-60(TB) leukemia = test system: HL-60(TB) leukemia
HOP-62 NSCLC = test system: HOP-62 NSCLC
HS 578T breast = test system: HS 578T breast
HT29 colon = test system: HT29 colon
IGROV1 ovarian = test system: IGROV1 ovarian
K-562 leukemia = test system: K-562 leukemia
KM12 colon = test system: KM12 colon
M14 melanoma = test system: M14 melanoma
MALME-3M melanoma = test system: MALME-3M melanoma
MCF7 breast = test system: MCF7 breast
MDA-MB-231 breast = test system: MDA-MB-231 breast
MDA-MB-435 = test system: MDA-MB-435
MDA-N = test system: MDA-N
MOLT-4 leukemia = test system: MOLT-4 leukemia
NCI-H226 lung = test system: NCI-H226 lung
NCI-H23 lung = test system: NCI-H23 lung
NCI-H460 lung = test system: NCI-H460 lung
NCI/ADR-RES ovarian = test system: NCI/ADR-RES ovarian
OVCAR-4 ovarian = test system: OVCAR-4 ovarian
OVCAR-5 ovarian = test system: OVCAR-5 ovarian
OVCAR-8 ovarian = test system: OVCAR-8 ovarian
PC-3 prostate = test system: PC-3 prostate
RPMI-8226 leukemia = test system: RPMI-8226 leukemia
SF-268 CNS = test system: SF-268 CNS
SF-295 CNS = test system: SF-295 CNS
SF-539 CNS = test system: SF-539 CNS
SK-MEL-2 melanoma = test system: SK-MEL-2 melanoma
SK-MEL-28 melanoma = test system: SK-MEL-28 melanoma
SK-MEL-5 melanoma = test system: SK-MEL-5 melanoma
SK-OV-3 ovarian = test system: SK-OV-3 ovarian
SN12C renal = test system: SN12C renal
SNB-19 CNS = test system: SNB-19 CNS
SNB-75 CNS = test system: SNB-75 CNS
SR leukemia = test system: SR leukemia
SW-620 colon = test system: SW-620 colon
T-47D breast = test system: T-47D breast
TK-10 renal = test system: TK-10 renal
U251 CNS = test system: U251 CNS
UACC-257 melanoma = test system: UACC-257 melanoma
UACC-62 melanoma = test system: UACC-62 melanoma
UO-31 renal = test system: UO-31 renal
LOX IMVI melanoma = test system: LOX IMVI melanoma
NCI-H522 lung = test system: NCI-H522 lung
OVCAR-3 ovarian = test system: OVCAR-3 ovarian
RXF 393 renal = test system: RXF 393 renal
HOP-92 NSCLC = test system: HOP-92 NSCLC

O=C(CC(C(=O)c1ccc(F)cc1)c1ccsc1)c1cccs1 (centres undefined)
TGI (786-0 renal): > 100 µM | TGI (A498 renal): > 100 µM | TGI (A549 NSCLC): > 100 µM | TGI (ACHN renal): > 100 µM | TGI (CAKI-1 renal): > 100 µM | TGI (CCRF-CEM leukemia): > 100 µM | TGI (COLO 205 colon): > 100 µM | TGI (DU-145 prostate): > 100 µM | TGI (EKVX NSCLC): > 100 µM | TGI (HCC-2998 colon): > 100 µM | TGI (HCT-116 colon): > 100 µM | TGI (HCT-15 colon): > 100 µM | TGI (HL-60(TB) leukemia): > 100 µM | TGI (HOP-62 NSCLC): > 100 µM | TGI (HS 578T breast): > 100 µM | TGI (HT29 colon): > 100 µM | TGI (IGROV1 ovarian): > 100 µM | TGI (K-562 leukemia): > 100 µM | TGI (KM12 colon): > 100 µM | TGI (M14 melanoma): > 100 µM | TGI (MALME-3M melanoma): > 100 µM | TGI (MCF7 breast): > 100 µM | TGI (MDA-MB-231 breast): > 100 µM | TGI (MDA-MB-435): > 100 µM | TGI (MDA-N): > 100 µM | TGI (MOLT-4 leukemia): 89.7 µM | TGI (NCI-H226 lung): > 100 µM | TGI (NCI-H23 lung): > 100 µM | TGI (NCI-H460 lung): > 100 µM | TGI (NCI/ADR-RES ovarian): > 100 µM | TGI (OVCAR-4 ovarian): > 100 µM | TGI (OVCAR-5 ovarian): > 100 µM | TGI (OVCAR-8 ovarian): > 100 µM | TGI (PC-3 prostate): > 100 µM | TGI (RPMI-8226 leukemia): > 100 µM | TGI (SF-268 CNS): > 100 µM | TGI (SF-295 CNS): > 100 µM | TGI (SF-539 CNS): > 100 µM | TGI (SK-MEL-2 melanoma): > 100 µM | TGI (SK-MEL-28 melanoma): > 100 µM | TGI (SK-MEL-5 melanoma): > 100 µM | TGI (SK-OV-3 ovarian): > 100 µM | TGI (SN12C renal): > 100 µM | TGI (SNB-19 CNS): > 100 µM | TGI (SNB-75 CNS): > 100000 nM | TGI (SR leukemia): > 100 µM | TGI (SW-620 colon): > 100 µM | TGI (T-47D breast): > 100 µM | TGI (TK-10 renal): > 100 µM | TGI (U251 CNS): > 100 µM | TGI (UACC-257 melanoma): > 100 µM | TGI (UACC-62 melanoma): > 100 µM | TGI (UO-31 renal): > 100 µM

O=[N+]([O-])C(=C1NCCN1)C(Cl)=C(Cl)Cl
TGI (786-0 renal): > 100 µM | TGI (A498 renal): > 100 µM | TGI (A549 NSCLC): > 100 µM | TGI (ACHN renal): > 100 µM | TGI (CAKI-1 renal): > 100 µM | TGI (CCRF-CEM leukemia): > 100 µM | TGI (COLO 205 colon): > 100 µM | TGI (DU-145 prostate): > 100 µM | TGI (EKVX NSCLC): > 100 µM | TGI (HCC-2998 colon): > 100 µM | TGI (HCT-116 colon): > 100 µM | TGI (HCT-15 colon): > 100 µM | TGI (HL-60(TB) leukemia): > 100 µM | TGI (HOP-62 NSCLC): > 100 µM | TGI (HS 578T breast): > 100 µM | TGI (HT29 colon): > 100 µM | TGI (IGROV1 ovarian): > 100 µM | TGI (K-562 leukemia): > 100 µM | TGI (KM12 colon): > 100 µM | TGI (LOX IMVI melanoma): > 100000 nM | TGI (M14 melanoma): > 100 µM | TGI (MALME-3M melanoma): > 100 µM | TGI (MCF7 breast): > 100 µM | TGI (MDA-MB-231 breast): > 100 µM | TGI (MDA-MB-435): > 100 µM | TGI (MDA-N): > 100 µM | TGI (MOLT-4 leukemia): > 100 µM | TGI (NCI-H226 lung): > 100 µM | TGI (NCI-H23 lung): > 100 µM | TGI (NCI-H460 lung): > 100 µM | TGI (NCI-H522 lung): > 100 µM | TGI (NCI/ADR-RES ovarian): > 100 µM | TGI (OVCAR-3 ovarian): > 100 µM | TGI (OVCAR-4 ovarian): > 100 µM | TGI (OVCAR-5 ovarian): > 100 µM | TGI (OVCAR-8 ovarian): > 100 µM | TGI (PC-3 prostate): > 100 µM | TGI (RPMI-8226 leukemia): > 100 µM | TGI (RXF 393 renal): > 100 µM | TGI (SF-268 CNS): > 100 µM | TGI (SF-295 CNS): > 100 µM | TGI (SF-539 CNS): > 100 µM | TGI (SK-MEL-2 melanoma): > 100 µM | TGI (SK-MEL-28 melanoma): > 100 µM | TGI (SK-MEL-5 melanoma): > 100 µM | TGI (SK-OV-3 ovarian): > 100 µM | TGI (SN12C renal): > 100 µM | TGI (SNB-19 CNS): > 100 µM | TGI (SR leukemia): > 100 µM | TGI (T-47D breast): > 100 µM | TGI (TK-10 renal): > 100 µM | TGI (U251 CNS): > 100 µM | TGI (UACC-257 melanoma): > 100 µM | TGI (UACC-62 melanoma): > 100 µM | TGI (UO-31 renal): > 100 µM

CCCCCCCCCCOC1C(C(O)CNCCCN(C)C)OC2OC3(CCCCC3)OC21 (centres undefined)
TGI (786-0 renal): 3.37 µM | TGI (A549 NSCLC): 11.7 µM | TGI (ACHN renal): 8.09 µM | TGI (CAKI-1 renal): 4.21 µM | TGI (CCRF-CEM leukemia): 3.64 µM | TGI (COLO 205 colon): 3.43 µM | TGI (DU-145 prostate): 9.24 µM | TGI (EKVX NSCLC): 7.6 µM | TGI (HCC-2998 colon): 4.46 µM | TGI (HCT-116 colon): 3.53 µM | TGI (HCT-15 colon): 3.21 µM | TGI (HL-60(TB) leukemia): 3.59 µM | TGI (HOP-62 NSCLC): 4.04 µM | TGI (HOP-92 NSCLC): 5.33 µM | TGI (HS 578T breast): 6.53 µM | TGI (HT29 colon): 3.12 µM | TGI (IGROV1 ovarian): 3.82 µM | TGI (K-562 leukemia): 3.47 µM | TGI (KM12 colon): 2.91 µM | TGI (LOX IMVI melanoma): 2680 nM | TGI (M14 melanoma): 3.55 µM | TGI (MALME-3M melanoma): 3.61 µM | TGI (MCF7 breast): 3.7 µM | TGI (MDA-MB-231 breast): 3.31 µM | TGI (MDA-MB-435): 3.56 µM | TGI (MDA-N): 3.37 µM | TGI (MOLT-4 leukemia): 3.87 µM | TGI (NCI-H226 lung): 36.7 µM | TGI (NCI-H23 lung): 3.01 µM | TGI (NCI-H460 lung): 3.44 µM | TGI (NCI-H522 lung): 3.56 µM | TGI (NCI/ADR-RES ovarian): 8.87 µM | TGI (OVCAR-3 ovarian): 3.59 µM | TGI (OVCAR-4 ovarian): 4.25 µM | TGI (OVCAR-5 ovarian): 3.71 µM | TGI (OVCAR-8 ovarian): 4.18 µM | TGI (PC-3 prostate): 6.7 µM | TGI (RPMI-8226 leukemia): 4.37 µM | TGI (RXF 393 renal): 3.7 µM | TGI (SF-268 CNS): 5.12 µM | TGI (SF-295 CNS): 3.52 µM | TGI (SK-MEL-2 melanoma): 4 µM | TGI (SK-MEL-28 melanoma): 3.1 µM | TGI (SK-MEL-5 melanoma): 3.34 µM | TGI (SK-OV-3 ovarian): 13.9 µM | TGI (SN12C renal): 5.19 µM | TGI (SNB-19 CNS): 3.24 µM | TGI (SNB-75 CNS): 681 nM | TGI (SR leukemia): 0.739 µM | TGI (SW-620 colon): 3.24 µM | TGI (T-47D breast): 5.42 µM | TGI (TK-10 renal): 6.55 µM | TGI (U251 CNS): 3.23 µM | TGI (UACC-257 melanoma): 10.8 µM | TGI (UACC-62 melanoma): 4.53 µM | TGI (UO-31 renal): 4.45 µM
